Laboratory results published in patent publication US12661398B2, “Combination of a PD-1 antagonist, a VEGFR/FGFR/RET tyrosine kinase inhibitor and a CBP/beta-catenin inhibitor for treating cancer” (Eisai R&D Management Co., Ltd., priority 2019, dated 2026).

Tested on: mouse Renal cell carcinoma cell line RAG
Assay: Subcutaneous (s.c.) RAG transplantation model, anti-tumor effect of triple combination (Example 1)
Format: in vivo
Conditions: for CR rate: 28 days of administration
Excerpt: An Eagle's minimal essential medium (E-MEM) containing 10% fetal bovine serum (FBS) and penicillin/streptomycin (100 unit/mL each) was used to culture a mouse Renal cell carcinoma cell line RAG (ATCC number: CCL-142). Logarithmic growing cells were collected from flasks using Trypsin-EDTA. The suspension of cells was centrifuged to remove the supernatant. Next, Hanks' Balanced Salt Solution (HBSS) was used to prepare a cell suspension having a concentration of 2.5×10^7 cells/mL. The cell suspension was subcutaneously transplanted at a dose of 0.1 mL on the right lateral side of the body of each of 7-week-old mice (BALB/cAnNCrlCrlj, female, Charles River Laboratories Japan Inc.). Eight (8) days after the transplantation, an electronic digital caliper (Digimatic™ Caliper; Mitutoyo Corporation) was used to measure the short and long diameters of a tumor of interest. The following equations were used to calculate the tumor volume TV and RTV. Tumor Volume TV (mm^3)=Long Diameter (mm)×Short Diameter (mm)×Short Diameter (mm)/2 EQ. 1: Relative Tumor Volume RTV=TV on day n/TV on day1 EQ. 2:
Based on the tumor volumes on the first day of administration, grouping was carried out such that the average values of the tumor volumes were almost the same. A 1 mg/ml solution of lenvatinib was prepared using 3 mM HCl and was orally administered at a dose of 0.2 mL/20 g mouse body weight once daily for 28 days. 0.2 mL of an administration sample containing 1.0 mg/mL of an anti-mouse-PD-1 antibody (Clone: RMP1-14, BioXCell, Catalog #: BE0146), which had been diluted with PBS, was intraperitoneally administered (at a dosage of 200 μg/mouse) twice a week a total of 8 times (day 1, day 4, day 8, day 11, day 15, day 18, day 22, and day 25, with the day of the grouping set to day 1). A 2.5 mg/ml solution of E7386 was prepared using 0.1 M HCl and was orally administered at a dose of 0.2 mL/20 g mouse body weight once daily for 28 days. To the control group, nothing was administered. Each group including 8 mice was used to conduct the experiment. Twice a week (day 1, day 4, day 8, day 11, day 15, day 18, day 22, day 25, and day 29), the respective tumor volumes (TV) were determined for the control group, the lenvatinib administration group, the anti-mouse-PD-1 antibody administration group, lenvatinib+anti-mouse-PD-1 antibody administration group, E7386+lenvatinib administration group and triple combination group. The values obtained by logarithmically transforming the tumor volumes were used to carry out statistical analysis by repeated measured Dunnet's multiple comparison. E7386 is (6S,9aS)-N-benzyl-8-({6-[3-(4-ethylpiperazin-1-yl)azetidin-1-yl]pyridin-2-yl}methyl)-6-(2-fluoro-4-hydroxybenzyl)-4,7-dioxo-2-(prop-2-en-1-yl)hexahydro-2H-pyrazino[2,1-c][1,2,4]triazine-1(6H)-carboxamide.

[1] = Day 1 (day of grouping, first administration), BALB/c mice

| SMILES | CR rate (BALB/c mice) | tumor volume (TV) [1] | tumor volume (TV) (Day 4, BALB/c mice) | tumor volume (TV) (Day 8, BALB/c mice) | tumor volume (TV) (Day 11, BALB/c mice) | tumor volume (TV) (Day 15, BALB/c mice) | tumor volume (TV) (Day 18, BALB/c mice) | tumor volume (TV) (Day 22, BALB/c mice) | tumor volume (TV) (Day 25, BALB/c mice) | tumor volume (TV) (Day 29, BALB/c mice) |
| --- | --- | --- | --- | --- | --- | --- | --- | --- | --- | --- |
| COc1cc2nccc(Oc3ccc(NC(=O)NC4CC4)c(Cl)c3)c2cc1C(N)=O [Lenvatinib, 4-[3-chloro-4-(cyclopropylaminocarbonyl)aminophenoxy]-7-methoxy-6-quinolinecarboxamide] | 0 out of 8 mice | 62 mm^3 | 82 mm^3 | 102 mm^3 | 134 mm^3 | 152 mm^3 | 175 mm^3 | 162 mm^3 | 166 mm^3 | 151 mm^3 |
| C=CCN1CC(=O)N2[C@@H](Cc3ccc(O)cc3F)C(=O)N(Cc3cccc(N4CC(N5CCN(CC)CC5)C4)n3)C[C@@H]2N1C(=O)NCc1ccccc1 [E7386, (6S,9aS)-N-benzyl-8-({6-[3-(4-ethylpiperazin-1-yl)azetidin-1-yl]pyridin-2-yl}methyl)-6-(2-fluoro-4-hydroxybenzyl)-4,7-dioxo-2-(prop-2-en-1-yl)hexahydro-2H-pyrazino[2,1-c][1,2,4]triazine-1(6H)-carboxamide] | 1 out of 8 mice | 62 mm^3 | 93 mm^3 | 148 mm^3 | 210 mm^3 | 301 mm^3 | 408 mm^3 | 588 mm^3 | 723 mm^3 | 923 mm^3 |
